Laboratory results from patent publication US11814367B2, “Inhibitors of glycogen synthase 1 (GYS1) and methods of use thereof” (Maze Therapeutics, Inc., priority 2021, dated 2023).

How the values were obtained:
[1] = target: hGYS1 enzyme (recombinant hGYS1/GN1 protein) (Homo sapiens (Human), UniProt P13807); test: GYS1 coupled enzyme assay (PK/LDH); assay type: biochemical; details: hGYS1/GN1 50 nM, UDP-Glucose 0.8 mM, G6P 1 mM; geometric mean of at least 2 runs
[2] = system: hGYS1 enzyme / glycogen synthesis in HeLa cells; test: GYS1 cell based assay (glycogen synthesis, Glucose-glo); design: species or system human; details: Homo sapiens, HeLa, 24 h, 24 h incubation, 20 mM glucose, geometric mean of at least 2 runs
In short: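 HeLa cells starved 24 h in medium containing only 1× Glutamax were plated onto compound in medium with 20 mM glucose (1% DMSO final) for 24 h, 37 °C, 5% CO2. Acid lysates were Tris-quenched, glucoamylase-digested (pH 5.3, 1 h, 37 °C) and read by Glucose-glo luminescence. IC50 came from Hill fits, as geometric mean of ≥2 runs.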

[3] = target: hGYS2 enzyme (recombinant hGYS2/GN1 protein) (Homo sapiens (Human), UniProt P54840); test: GYS2 coupled enzyme assay (PK/LDH); assay type: biochemical; details: geometric mean of at least 2 assay runs on separate days, read-out: Avg_IC50
In short: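 IC50 came from Hill fits of duplicate percent inhibition, based on control-normalized slopes of 340 nm NADH decline read each minute for 10 min. The reaction held recombinant hGYS2/GN1 (200 nM) with glycogen, UDP-glucose, G6P and PEP, plus PK/LDH coupling at pH 7.5 and 2.5% DMSO.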

Sequence of hGYS1 enzyme (recombinant hGYS1/GN1 protein) (P13807 whole entry): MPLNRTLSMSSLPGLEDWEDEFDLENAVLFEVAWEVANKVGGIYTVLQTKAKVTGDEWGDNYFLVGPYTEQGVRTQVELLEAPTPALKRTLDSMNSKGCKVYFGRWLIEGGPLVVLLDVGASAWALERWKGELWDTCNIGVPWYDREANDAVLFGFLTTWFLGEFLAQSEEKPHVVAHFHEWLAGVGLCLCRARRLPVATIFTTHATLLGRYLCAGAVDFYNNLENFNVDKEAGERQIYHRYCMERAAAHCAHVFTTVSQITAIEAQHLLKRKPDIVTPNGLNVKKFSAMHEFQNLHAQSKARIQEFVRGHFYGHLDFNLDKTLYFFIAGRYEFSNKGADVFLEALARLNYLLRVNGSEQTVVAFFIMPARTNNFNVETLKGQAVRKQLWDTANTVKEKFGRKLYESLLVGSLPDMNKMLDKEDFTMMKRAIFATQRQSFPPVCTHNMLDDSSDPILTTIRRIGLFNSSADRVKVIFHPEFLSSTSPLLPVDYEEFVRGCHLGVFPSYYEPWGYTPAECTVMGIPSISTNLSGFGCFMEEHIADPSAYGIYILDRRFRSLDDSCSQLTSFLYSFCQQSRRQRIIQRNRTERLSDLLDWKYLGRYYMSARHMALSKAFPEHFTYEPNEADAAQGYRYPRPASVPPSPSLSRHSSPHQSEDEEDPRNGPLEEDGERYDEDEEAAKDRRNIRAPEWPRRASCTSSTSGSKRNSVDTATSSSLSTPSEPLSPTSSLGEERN
Sequence of hGYS1 enzyme (recombinant hGYS1/GN1 protein) (P46976 whole entry partner): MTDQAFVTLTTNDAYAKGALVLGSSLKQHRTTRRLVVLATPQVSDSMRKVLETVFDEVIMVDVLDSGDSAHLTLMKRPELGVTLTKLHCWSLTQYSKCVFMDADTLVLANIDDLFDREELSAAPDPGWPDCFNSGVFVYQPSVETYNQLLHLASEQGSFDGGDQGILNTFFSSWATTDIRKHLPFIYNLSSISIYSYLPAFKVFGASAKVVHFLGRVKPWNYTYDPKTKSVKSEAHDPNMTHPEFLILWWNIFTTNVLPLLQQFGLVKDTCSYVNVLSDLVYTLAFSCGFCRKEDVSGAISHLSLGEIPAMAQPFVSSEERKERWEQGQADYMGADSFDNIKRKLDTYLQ
Sequence of hGYS2 enzyme (recombinant hGYS2/GN1 protein) (P54840 whole entry): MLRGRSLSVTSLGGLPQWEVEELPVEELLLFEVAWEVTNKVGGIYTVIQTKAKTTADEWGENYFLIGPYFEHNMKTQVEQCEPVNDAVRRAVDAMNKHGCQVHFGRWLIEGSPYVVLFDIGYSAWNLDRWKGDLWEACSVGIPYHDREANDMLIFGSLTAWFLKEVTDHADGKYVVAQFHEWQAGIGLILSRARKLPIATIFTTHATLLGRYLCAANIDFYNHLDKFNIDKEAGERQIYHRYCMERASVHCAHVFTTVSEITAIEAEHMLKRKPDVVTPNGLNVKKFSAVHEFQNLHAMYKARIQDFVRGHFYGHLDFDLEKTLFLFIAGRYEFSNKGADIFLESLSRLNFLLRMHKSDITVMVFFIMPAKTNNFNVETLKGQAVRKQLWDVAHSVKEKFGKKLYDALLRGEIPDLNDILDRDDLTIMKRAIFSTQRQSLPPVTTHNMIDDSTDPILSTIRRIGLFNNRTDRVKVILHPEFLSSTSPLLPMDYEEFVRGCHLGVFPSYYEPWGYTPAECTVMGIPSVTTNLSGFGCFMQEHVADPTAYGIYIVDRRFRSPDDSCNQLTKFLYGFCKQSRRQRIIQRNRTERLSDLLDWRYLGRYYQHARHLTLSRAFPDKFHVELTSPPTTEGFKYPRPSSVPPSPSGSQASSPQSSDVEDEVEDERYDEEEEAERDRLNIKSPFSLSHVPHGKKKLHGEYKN
Sequence of hGYS2 enzyme (recombinant hGYS2/GN1 protein) (P46976 whole entry partner): as the sequence (P46976 whole entry partner) above

| Compound | IC50 [1] [nM] | IC50 [2] [nM] | IC50 [3] [nM] |
| --- | --- | --- | --- |
| Cc1ccc2c(CC(=O)N3C[C@H](F)C[C@H]3C(=O)N[C@@H](c3ccccc3)c3ccc(C(C)C)c(F)n3)cccc2n1 [Compound 387, (2S,4R)-4-fluoro-N-[(S)-[6-fluoro-5-(propan-2-yl)pyridin-2-yl](phenyl)methyl]-1-[2-(2-methylquinolin-5-yl)acetyl]pyrrolidine-2-carboxamide] | 5 | 30 | 36200 |
| CC(=O)NCc1nnc(CC(=O)N2C[C@H](F)C[C@H]2C(=O)N[C@@H](c2ccccc2)c2ccc(C(C)C)cc2)o1 [Compound 239, (2S,4R)-1-{2-[5-(acetamidomethyl)-1,3,4-oxadiazol-2-yl]acetyl}-4-fluoro-N-[(S)-phenyl[4-(propan-2-yl)phenyl]methyl]pyrrolidine-2-carboxamide] | 67 | 1560 | > 100000 |
| O=C(N[C@@H](c1ccccc1)c1ccc(C2CC2)c(F)c1)[C@@H]1C[C@@H](F)CN1C(=O)CN1CCN(CC(F)(F)F)CC1=O [Compound 466, (2S,4R)-N-[(S)-(4-cyclopropyl-3-fluorophenyl)(phenyl)methyl]-4-fluoro-1-{2-[2-oxo-4-(2,2,2-trifluoroethyl)piperazin-1-yl]acetyl}pyrrolidine-2-carboxamide] | 238 | 2320 | > 100000 |
| CC(C)c1ccc([C@@H](NC(=O)[C@@H]2C[C@@H](F)CN2C(=O)CNc2ncco2)c2ccccc2)cc1 [Compound 198, (2S,4R)-4-fluoro-1-{2-[(1,3-oxazol-2-yl)amino]acetyl}-N-[(S)-phenyl[4-(propan-2-yl)phenyl]methyl]pyrrolidine-2-carboxamide] | 31 | 390 | > 100000 |
| CC(C)c1ccc([C@@H](NC(=O)[C@@H]2C[C@@H](F)CN2C(=O)Cn2cc(N3CCNCC3)nn2)c2ccccc2)cc1F [Compound 375, (2S,4R)-4-fluoro-N-[(S)-[3-fluoro-4-(propan-2-yl)phenyl](phenyl)methyl]-1-{2-[4-(piperazin-1-yl)-1H-1,2,3-triazol-1-yl]acetyl}pyrrolidine-2-carboxamide] | 6 | 570 | > 77400 |
| O=C(N[C@@H](c1ccccc1)c1ccc(C2CC(F)(F)C2)c(F)n1)[C@@H]1C[C@@H](F)CN1C(=O)Cc1[nH]nnc1C(F)(F)F [Compound 510, (2S,4R)-N-[(S)-[5-(3,3-difluorocyclobutyl)-6-fluoropyridin-2-yl](phenyl)methyl]-4-fluoro-1-{2-[4-(trifluoromethyl)-1H-1,2,3-triazol-5-yl]acetyl} pyrrolidine-2-carboxamide] | 9 | 230 | > 100000 |
| CC(C)c1ccc([C@@H](NC(=O)[C@@H]2C[C@@H](F)CN2C(=O)CNC(=O)N(C)C)c2ccccc2)nc1F [Compound 394, (2S,4R)-1-{2-[(dimethylcarbamoyl)amino]acetyl}-4-fluoro-N-[(S)-[6-fluoro-5-(propan-2-yl)pyridin-2-yl](phenyl)methyl] pyrrolidine-2-carboxamide] | 7 | 150 | > 100000 |
| Cc1nnn(CC(=O)N2C[C@H](F)C[C@H]2C(=O)NC(c2ccccc2)c2cc(C)c(C3CC3)c(F)c2)n1 (single isomer, unassigned) [Compound 682, (2S,4R)-N-[(S) or (R)-(4-cyclopropyl-3-fluoro-5-methylphenyl) (phenyl)methyl]-4-fluoro-1-[2-(5-methyl-2H-1,2,3,4-tetrazol-2-yl)acetyl]pyrrolidine-2-carboxamide] | 116 | 2090 | > 100000 |
| CC(C)c1ccc([C@@H](NC(=O)[C@@H]2CC[C@H](C)N2C(=O)Cc2cnn[nH]2)c2ccccc2)nc1 [Compound 280, (2S,5S)-5-methyl-N-[(S)-phenyl[5-(propan-2-yl)pyridin-2-yl]methyl]-1-[2-(1H-1,2,3-triazol-5-yl)acetyl]pyrrolidine-2-carboxamide] | 149 | 1530 | > 100000 |
| Cn1cc(CC(=O)N2C[C@H](F)C[C@H]2C(=O)N[C@@H](c2ccccc2)c2ccc(C3(C)CC3)c(F)n2)c2ccccc21 [Compound 592, (2S,4R)-4-fluoro-N-[(S)-[6-fluoro-5-(1-methylcyclopropyl)pyridin-2-yl](phenyl)methyl]-1-[2-(1-methyl-1H-indol-3-yl)acetyl]pyrrolidine-2-carboxamide] | 10 | 330 | > 100000 |
| CC(=O)N1CCCC(C(=O)N2C[C@H](F)C[C@H]2C(=O)N[C@@H](c2ccccc2)c2ccc(C(C)C)cc2)C1C (stereo partly drawn) [Compound 178, (2S,4R)-1-(1-acetyl-2-methylpiperidine-3-carbonyl)-4-fluoro-N-[(S)-phenyl[4-(propan-2-yl)phenyl]methyl]pyrrolidine-2-carboxamide] | 38 | 410 | > 100000 |
| Cc1ccnn1CC(=O)N1C[C@H](F)C[C@H]1C(=O)N[C@@H](c1ccccc1)c1ccc(C(C)C)c(F)n1 [Compound 782, (2S,4R)-4-fluoro-N-[(S)-[6-fluoro-5-(propan-2-yl)pyridin-2-yl](phenyl)methyl]-1-[2-(5-methyl-1H-pyrazol-1-yl)acetyl] pyrrolidine-2-carboxamide] | 11 | 220 | > 100000 |
| CC1(c2ccc([C@@H](NC(=O)[C@@H]3C[C@@H](F)CN3C(=O)CN3Cc4ccccc4C3=O)c3ccccc3)cc2F)CC1 [Compound 573, (2S,4R)-4-fluoro-N-[(S)-[3-fluoro-4-(1-methylcyclopropyl)phenyl](phenyl)methyl]-1-[2-(1-oxo-2,3-dihydro-1H-isoindol-2-yl)acetyl]pyrrolidine-2-carboxamide] | 178 | 1660 | > 100000 |
| Cc1cn(CC(=O)N2C[C@H](F)C[C@H]2C(=O)N[C@@H](c2ccccc2)c2ccc(C(C)C)cn2)c(=O)[nH]c1=O [Compound 249, (2S,4R)-4-fluoro-1-[2-(5-methyl-2,4-dioxo-1,2,3,4-tetrahydropyrimidin-1-yl)acetyl]-N-[(S)-phenyl[5-(propan-2-yl)pyridin-2-yl]methyl]pyrrolidine-2-carboxamide] | 21 | 1150 | > 100000 |
| O=C(N[C@@H](c1ccccc1)c1ccc(C2CC2)c(F)n1)[C@@H]1C[C@@H](F)CN1C(=O)Cc1ncco1 [Compound 312, (2S,4R)-N-[(S)-(5-cyclopropyl-6-fluoropyridin-2-yl)(phenyl)methyl]-4-fluoro-1-[2-(1,3-oxazol-2-yl)acetyl]pyrrolidine-2-carboxamide] | 97 | 830 | > 100000 |
| CC1(c2ccc([C@@H](NC(=O)[C@@H]3C[C@@H](F)CN3C(=O)Cn3c(=O)[nH]c4ccccc43)c3ccccc3)nc2F)CC1 [Compound 599, (2S,4R)-4-fluoro-N-[(S)-[6-fluoro-5-(1-methylcyclopropyl)pyridin-2-yl](phenyl)methyl]-1-[2-(2-oxo-2,3-dihydro-1H-1,3-benzodiazol-1-yl)acetyl]pyrrolidine-2-carboxamide] | 40 | 720 | > 100000 |
| CC(C)c1ccc([C@@H](NC(=O)[C@@H]2C[C@@H](F)[C@H](C)N2C(=O)Cc2cnn[nH]2)c2ccccc2)cc1F [Compound 340, (2S,4R,5S)-4-fluoro-N-[(S)-[3-fluoro-4-(propan-2-yl)phenyl](phenyl)methyl]-5-methyl-1-[2-(1H-1,2,3-triazol-5-yl)acetyl]pyrrolidine-2-carboxamide] | 18 | 250 | > 100000 |
| CC(C)c1ccc([C@@H](NC(=O)[C@@H]2C[C@@H](F)CN2C(=O)Cc2cnn[nH]2)c2ccccc2)nc1 [Compound 244, (2S,4R)-1-(2-(1H-1,2,3-triazol-5-yl)acetyl)-4-fluoro-N-((S)-(5-isopropylpyridin-2-yl)(phenyl)methyl)pyrrolidine-2-carboxamide] | 77 | 1800 | > 100000 |
| CC(C)c1ccc([C@@H](NC(=O)[C@@H]2C[C@@H](F)CN2C(=O)Cn2cnnc2)c2ccccc2)cc1F [Compound 384, (2S,4R)-4-fluoro-N-[(S)-[3-fluoro-4-(propan-2-yl)phenyl](phenyl)methyl]-1-[2-(4H-1,2,4-triazol-4-yl)acetyl]pyrrolidine-2-carboxamide] | 33 | 700 | > 100000 |
| CC(C)c1ccc([C@@H](NC(=O)[C@@H]2C[C@@H](F)CN2C(=O)Cc2noc(=O)n2C)c2ccccc2)nc1F [Compound 402, (2S,4R)-4-fluoro-N-[(S)-[6-fluoro-5-(propan-2-yl)pyridin-2-yl](phenyl)methyl]-1-[2-(4-methyl-5-oxo-4,5-dihydro-1,2,4-oxadiazol-3-yl)acetyl]pyrrolidine-2-carboxamide] | 59 | 850 | > 100000 |
| CC(C)c1ccc([C@@H](NC(=O)[C@@H]2C[C@@H](F)CN2C(=O)Cc2ccc3ncccc3c2)c2ccccc2)cc1F [Compound 357, (2S,4R)-4-fluoro-N-[(S)-[3-fluoro-4-(propan-2-yl)phenyl](phenyl)methyl]-1-[2-(quinolin-6-yl)acetyl]pyrrolidine-2-carboxamide] | 21 | 220 | > 100000 |
